{
  "source": "ChEMBL document CHEMBL5661943",
  "about": "“ASAP - In vitro antiviral effect” (2024)",
  "key": {"dengue virus type 2": {"tested_on": "dengue virus type 2", "test": "Functional immunofluorescence assay to measure dose dependent changes in antiviral-drug inhibitory efficacy against Dengue virus type 2 Thailand/16681/84 in Vero E6/TMPRSS2 cells (cotreated with P-gp inhibitor, Elacridar). Cells are treated with antiviral candidates that are serially diluted, following infection, cells are fixed. EC50 is reported via analysis of immunofluorescence staining. The assay has been performed by Icahn School of Medicine at Mount Sinai.", "format": "organism-based, Chlorocebus sabaeus, VeroE6/TMPRSS2", "settings": "for EC90: P-gp concentration 2 uM, P-gp inhibitor Elacidar"}, "Zika virus": {"tested_on": "Zika virus", "test": "EC50 is reported via analysis of immunofluorescence staining. The assay has been performed by Icahn School of Medicine at Mount Sinai.", "format": "functional, organism-based, Chlorocebus sabaeus, VeroE6/TMPRSS2"}},
  "note": "“And” between values parts separate entries of the source, which are not always exact repeats. Equal values may be shown once.",
  "data": [
    {"smiles": "c1ccc(-c2csc(C3CCN(Cc4c[nH]c5ccccc45)CC3)n2)cc1", "values": [
      {"measurement": "EC50", "setting": "dengue virus type 2; Dengue virus, VeroE6/TMPRSS2", "value": "> 3.33", "unit": "µM"},
      {"measurement": "EC90", "setting": "dengue virus type 2; Dengue virus, VeroE6/TMPRSS2, Maximum measured 77.936 %, Minimum measured 57.835 %", "value": "> 3.33", "unit": "µM"},
      {"measurement": "EC90", "setting": "dengue virus type 2; Dengue virus, VeroE6/TMPRSS2, Baseline response 0 %, Hill slope -0.326, Maximum measured 104.724 %, Maximum response 100 %, Minimum measured 54.484 %, R squared 0.233", "value": "> 1.85", "unit": "µM"},
      {"measurement": "EC50", "setting": "dengue virus type 2; veroe6/tmprss2", "value": "> 1.85", "unit": "µM"},
      {"measurement": "EC90", "setting": "Zika virus; Baseline response 0 %, Hill slope -0.213, Maximum measured 87.861 %, Maximum response 100 %, Minimum measured 39.067 %, P-gp concentration 2 uM, R squared 0.218, P-gp inhibitor Elacidar", "value": "> 1.85", "unit": "µM"},
      {"measurement": "EC50", "setting": "Zika virus; Zika virus, VeroE6/TMPRSS2", "value": 0.919, "unit": "µM"},
      {"measurement": "EC90", "setting": "Zika virus; Zika virus, VeroE6/TMPRSS2, Baseline response 0 %, Hill slope -0.414, Maximum measured 90.11 %, Maximum response 100 %, Minimum measured 29.783 %, P-gp concentration 2 uM, R squared 0.361, P-gp inhibitor Elacidar", "value": "> 3.33", "unit": "µM"},
      {"measurement": "EC50", "setting": "Zika virus; veroe6/tmprss2", "value": 1.09, "unit": "µM"}
    ]},
    {"smiles": "CCOc1cccc(-c2ccc(S(=O)(=O)Nc3ccc(Cl)cc3C(=O)O)cc2)c1", "values": [
      {"measurement": "EC90", "setting": "dengue virus type 2; Dengue virus, VeroE6/TMPRSS2, Maximum measured 86.49 %, Minimum measured 33.39 %", "value": "> 3.33", "unit": "µM"},
      {"measurement": "EC90", "setting": "dengue virus type 2; Dengue virus, VeroE6/TMPRSS2, Maximum measured 135.635 %, Minimum measured 86.345 %", "value": "> 16.7", "unit": "µM"},
      {"measurement": "EC50", "setting": "dengue virus type 2; veroe6/tmprss2", "value": "> 16.7", "unit": "µM"},
      {"measurement": "EC90", "setting": "Zika virus; Baseline response 0 %, Hill slope -0.264, Maximum measured 100.253 %, Maximum response 100 %, Minimum measured 37.313 %, P-gp concentration 2 uM, R squared 0.296, P-gp inhibitor Elacidar", "value": "> 16.7", "unit": "µM"},
      {"measurement": "EC50", "setting": "Zika virus; Zika virus, VeroE6/TMPRSS2", "value": "> 10", "unit": "µM"},
      {"measurement": "EC90", "setting": "Zika virus; Zika virus, VeroE6/TMPRSS2, Baseline response 0 %, Hill slope -0.107, Maximum measured 149.039 %, Maximum response 100 %, Minimum measured 60.172 %, P-gp concentration 2 uM, R squared 0.014, P-gp inhibitor Elacidar", "value": "> 10", "unit": "µM"},
      {"measurement": "EC50", "setting": "Zika virus; veroe6/tmprss2", "value": 9.76, "unit": "µM"}
    ]},
    {"smiles": "NCc1cccc(NC(=O)c2cc(Cl)cc(N3CCCC3=O)c2)c1", "values": [
      {"measurement": "EC90", "setting": "dengue virus type 2; Dengue virus, VeroE6/TMPRSS2, Maximum measured 120.219 %, Minimum measured 55.49 %", "value": "> 10", "unit": "µM"},
      {"measurement": "EC90", "setting": "dengue virus type 2; Dengue virus, VeroE6/TMPRSS2, Baseline response 0 %, Hill slope 0.068, Maximum measured 98.172 %, Maximum response 100 %, Minimum measured 58.193 %, R squared 0.052", "value": "> 50", "unit": "µM"},
      {"measurement": "EC50", "setting": "dengue virus type 2; veroe6/tmprss2", "value": "> 50", "unit": "µM"},
      {"measurement": "EC90", "setting": "Zika virus; Baseline response 0 %, Hill slope 0.118, Maximum measured 129.177 %, Maximum response 100 %, Minimum measured 53.613 %, P-gp concentration 2 uM, R squared 0.041, P-gp inhibitor Elacidar", "value": "> 10", "unit": "µM"},
      {"measurement": "EC90", "setting": "Zika virus; Baseline response 0 %, Hill slope -0.203, Maximum measured 140.608 %, Maximum response 100 %, Minimum measured 78.837 %, P-gp concentration 2 uM, R squared 0.028, P-gp inhibitor Elacidar", "value": "> 50", "unit": "µM"},
      {"measurement": "EC50", "setting": "Zika virus; veroe6/tmprss2", "value": "> 50", "unit": "µM"}
    ]},
    {"smiles": "NCc1cccc(NC(=O)c2cc(Cl)cc(NC(=O)OCc3ccccc3)c2)c1", "values": [
      {"measurement": "EC90", "setting": "dengue virus type 2; Baseline response 0 %, Hill slope 0.299, Maximum measured 124.416 %, Maximum response 100 %, Minimum measured 54.583 %, R squared 0.188", "value": "> 10", "unit": "µM"},
      {"measurement": "EC90", "setting": "dengue virus type 2; Baseline response 0 %, Hill slope -0.071, Maximum measured 76.87 %, Maximum response 100 %, Minimum measured 49.245 %, R squared 0.036", "value": "> 1.85", "unit": "µM"},
      {"measurement": "EC90", "setting": "dengue virus type 2; Baseline response 0 %, Hill slope -0.258, Maximum measured 121.337 %, Maximum response 100 %, Minimum measured 68.392 %, R squared 0.156", "value": "> 5.56", "unit": "µM"},
      {"measurement": "EC50", "setting": "dengue virus type 2; veroe6/tmprss2", "value": "> 10", "unit": "µM"},
      {"measurement": "EC90", "setting": "Zika virus; Baseline response 0 %, Hill slope -0.215, Maximum measured 128.419 %, Maximum response 100 %, Minimum measured 50.213 %, P-gp concentration 2 uM, R squared 0.105, P-gp inhibitor Elacidar", "value": "> 3.33", "unit": "µM"},
      {"measurement": "EC90", "setting": "Zika virus; Baseline response 0 %, Hill slope -0.764, Maximum measured 71.895 %, Maximum response 50 %, Minimum measured 1.714 %, P-gp concentration 2 uM, R squared 0.465, P-gp inhibitor Elacidar", "value": "> 16.7", "unit": "µM"},
      {"measurement": "EC90", "setting": "Zika virus; Baseline response 0 %, Hill slope -1.05, Maximum measured 125.373 %, Maximum response 100 %, Minimum measured 37.992 %, P-gp concentration 2 uM, R squared 0.488, P-gp inhibitor Elacidar", "value": "> 5.56", "unit": "µM"},
      {"measurement": "EC50", "setting": "Zika virus; veroe6/tmprss2", "value": "> 3.33 µM and 2.02 µM and 1.2 µM"}
    ]},
    {"smiles": "NCc1cccc(NC(=O)[C@H]2[C@H]3CCCCC[C@H]3[C@H]2NC(=O)OCc2ccccc2)c1", "values": [
      {"measurement": "EC50", "setting": "dengue virus type 2; Dengue virus, VeroE6/TMPRSS2", "value": "> 5.56", "unit": "µM"},
      {"measurement": "EC90", "setting": "dengue virus type 2; Dengue virus, VeroE6/TMPRSS2, Baseline response 0 %, Hill slope -0.21, Maximum measured 66.083 %, Maximum response 100 %, Minimum measured 25.848 %, R squared 0.326", "value": "> 5.56", "unit": "µM"},
      {"measurement": "EC50", "setting": "Zika virus; Zika virus, VeroE6/TMPRSS2", "value": 1.43, "unit": "µM"},
      {"measurement": "EC90", "setting": "Zika virus; Zika virus, VeroE6/TMPRSS2", "value": 9.76, "unit": "µM"}
    ]},
    {"smiles": "NCc1cccc(NC(=O)[C@@H](NC(=O)OCc2ccccc2)c2ccc(Br)c(Cl)c2)c1", "values": [
      {"measurement": "EC50", "setting": "dengue virus type 2; Dengue virus, VeroE6/TMPRSS2", "value": "> 5.56", "unit": "µM"},
      {"measurement": "EC90", "setting": "dengue virus type 2; Dengue virus, VeroE6/TMPRSS2, Maximum measured 72.758 %, Minimum measured 24.513 %", "value": "> 5.56", "unit": "µM"},
      {"measurement": "EC50", "setting": "Zika virus; Zika virus, VeroE6/TMPRSS2", "value": 0.557, "unit": "µM"},
      {"measurement": "EC90", "setting": "Zika virus; Zika virus, VeroE6/TMPRSS2, Baseline response 0 %, Hill slope -0.711, Maximum measured 91.358 %, Maximum response 100 %, Minimum measured 2.864 %, P-gp concentration 2 uM, R squared 0.54, P-gp inhibitor Elacidar", "value": "> 5.56", "unit": "µM"}
    ]},
    {"smiles": "NCc1cccc(NC(=O)c2cc(Cl)cc3c2CCC3)c1", "values": [
      {"measurement": "EC50", "setting": "dengue virus type 2; Dengue virus, VeroE6/TMPRSS2", "value": "> 10", "unit": "µM"},
      {"measurement": "EC90", "setting": "dengue virus type 2; Dengue virus, VeroE6/TMPRSS2, Maximum measured 223.993 %, Minimum measured 74.273 %", "value": "> 16.7", "unit": "µM"},
      {"measurement": "EC90", "setting": "dengue virus type 2; Dengue virus, VeroE6/TMPRSS2, Baseline response 0 %, Hill slope 0.162, Maximum measured 165.889 %, Maximum response 100 %, Minimum measured 52.995 %, R squared 0.068", "value": "> 10", "unit": "µM"},
      {"measurement": "EC50", "setting": "dengue virus type 2; veroe6/tmprss2", "value": "> 16.7", "unit": "µM"},
      {"measurement": "EC50", "setting": "Zika virus; Zika virus, VeroE6/TMPRSS2", "value": "> 16.7", "unit": "µM"},
      {"measurement": "EC90", "setting": "Zika virus; Zika virus, VeroE6/TMPRSS2, Maximum measured 83.197 %, Minimum measured 51.618 %, P-gp concentration 2 uM, P-gp inhibitor Elacidar", "value": "> 16.7", "unit": "µM"}
    ]}
  ]
}
